Data from US11241013B2, “Benzimidazole compounds as agricultural chemicals” (REDAG CROP PROTECTION LTD, priority 2017, dated 2022).
One block for each compound: values may come before it.

What was measured:
Format in all cases: cell-based
Phytophthora cinnamomi = assay: Amended agar assay; design: key to % control Phytophthora cinnamomi 20 ppm: D: no control detected at this concentration; C: up to 50% control; B: from 50 to 99% control; A: a control of greater than 99%, i.e. no detectable colony growth; details: for % control Phytophthora cinnamomi 20 ppm: amended PDA agar, % reduction in colony growth vs control plate, 18° C.; for EC50 Phytophthora spp. (marked *: Phytophthora cinnamomi): values marked *: amended agar assay, descending concentrations with 5-fold dilutions
Description: (§1) Testing was carried out on potato dextrose agar (PDA) amended with each compound at a test concentration of typically 20 ppm or 2 ppm. Amended agar was poured into three replicate 9 cm petri dishes. Each replicate dish was inoculated in the centre with a 5 mm agar plug taken from the leading edge of a culture aged between 2 and 7 days old; the age of the culture was dependant on the growth rate of the pathogen being tested. The test pathogens were Pythium ultimum and Phytophthora cinnamomi. Plates were incubated at 18° C. and the diameter of each colony measured before growth on the fastest growing plate reached the plate edge. This varied between 2 and 7 days depending on the growth rate of test pathogens. The % reduction in colony growth compared to the control plate was calculated for each pathogen. The results are provided in Table 1, in which D represents no control detected at this concentration; C represents up to 50% control; B from 50 to 99% control; and A represents a control of greater than 99%, i.e. no detectable colony growth.
(§2) Alternatively, or in addition, the same assay was conducted at descending test concentrations with 5-fold dilutions typically down to 0.032 ppm though sometimes as low as 0.00026 ppm, and an EC50 (the concentration at which 50% control would be achieved) was determined. The results are provided in Table 1 in which G represents no control detected at 20 ppm, F represents an EC50 of ≥20 ppm and E represents an EC50 of less than 20 ppm.

Pythium ultimum = assay: Amended agar assay; design: key to % control Pythium ultimum 2 ppm / % control Pythium ultimum 20 ppm: D: no control detected at this concentration; C: up to 50% control; B: from 50 to 99% control; A: a control of greater than 99%, i.e. no detectable colony growth; details: for % control Pythium ultimum 20 ppm / inhibition of growth at 20 ppm / inhibition of growth at 2 ppm / % control Pythium ultimum 2 ppm: amended PDA agar, % reduction in colony growth vs control plate, 18° C.; for inhibition of growth at 20 ppm / inhibition of growth at 2 ppm: Globisporangium ultimum; for EC50 Pythium ultimum: amended agar assay, descending concentrations with 5-fold dilutions
Description: as §1, §2

Phytophthora cactorum [1] = assay: 96 well plate test; design: key: H: no control detected at 20 ppm; G: no control detected at 2 ppm (where the highest test concentration in the assay was 2 ppm); F: an EC50 of ≥20 ppm; an EC50 of less than 20 ppm; details: 96 well plate assay, agar amended to 20, 2, 0.2 and 0.02 ppm, assessed after 2 to 3 days
Description: (§3) Compounds were screened in 96 well plates with 10 compounds per plate. Each compound was screened using agar amended to 20, 2, 0.2 and 0.02 ppm, with proline at 50 and 10 ppm and 0.2% DMSO used as controls. Each test concentration and standard was replicated twice on a plate. Compounds were screened against Phytophthora cactorum. The agar used in the test is a 1% potato dextrose agar. 1000 spores/mL agar were added to the appropriate agar. A ×10 stock solution in 2% DMSO was produced for each dose i.e. 200, 20, 2 and 0.2 ppm, and 10 μl of this added to the appropriate wells on the plate. An equivalent amount of 2% DMSO and proline stock at 500 and 100 ppm were added for the controls. To each well 90 μl of the appropriate agar spore suspension was added to give the required final well concentrations. Plates were incubated at room temperature (18° C.) and assessed after 2 to 3 days. The amount of pathogen growth in each well was compared to the DMSO controls and an EC50 concentration was calculated. The results are provided in Table 1 in which H represents no control detected at 20 ppm, G represents no control detected at 2 ppm (where the highest test concentration in the assay was 2 ppm), F represents an EC50 of ≥20 ppm, E represents an EC50 of less than 20 ppm.

Phytophthora cactorum [2] = assay: 96 well plate test; design: key: G: no control detected at 20 ppm; F: an EC50 of ≥20 ppm; an EC50 of less than 20 ppm; details: 96 well plate assay, agar amended to 20, 2, 0.2 and 0.02 ppm, assessed after 2 to 3 days
Description: as §3

Compound: Cn1nnnc1-n1c(OCc2cccc(NS(C)(=O)=O)n2)nc2ccccc21 [Example 31, N-(6-(((1-(1-Methyl-1H-tetrazol-5-yl)-1H-benzo[d]imidazol-2-yl)oxy)methyl)pyridin-2-yl)methanesulfonamide]
% control Phytophthora cinnamomi 20 ppm (Phytophthora cinnamomi): B (from 50 to 99% control)
% control Pythium ultimum 20 ppm (Pythium ultimum): D

Compound: Clc1cncnc1-c1c(OCc2ccccn2)[nH]c2ccccc12 [Example 33, 3-(5-Chloropyrimidin-4-yl)-2-(pyridin-2-ylmethoxy)-1H-indole]
% control Phytophthora cinnamomi 20 ppm (Phytophthora cinnamomi): B (from 50 to 99% control)
inhibition of growth at 20 ppm (Pythium ultimum): < 50%

Compound: Cn1nnnc1-n1c(OCc2cccc(N)n2)nc2ccccc21 [Example 1, 6-(((1-(1-Methyl-1H-tetrazol-5-yl)-1H-benzo[d]imidazol-2-yl)oxy)methyl)pyridin-2-amine]
% control Phytophthora cinnamomi 20 ppm (Phytophthora cinnamomi): B (from 50 to 99% control)
inhibition of growth at 20 ppm (Pythium ultimum): > 99%

Compound: c1ccc(COc2nc3ccccc3n2-c2ccccn2)nc1 [Example 27]
% control Phytophthora cinnamomi 20 ppm (Phytophthora cinnamomi): D
inhibition of growth at 20 ppm (Pythium ultimum): < 50%

Compound: Cn1nnnc1-n1c(OCc2ccc3ccccc3n2)nc2c(Cl)cccc21 [Example 67]
EC50 Phytophthora spp. (Phytophthora cactorum) (Phytophthora cactorum [1]): G
inhibition of growth at 2 ppm (Pythium ultimum): > 99%

Compound: Cn1nnnc1-n1c(OCc2cccc(NCc3ccc(C#N)cc3)n2)nc2ccccc21 [Example 46]
EC50 Phytophthora spp. (Phytophthora cactorum) (Phytophthora cactorum [1]): G
inhibition of growth at 2 ppm (Pythium ultimum): 50 to 99%

Compound: Cc1cccnc1-n1c(OCc2ccccn2)nc2ccccc21 [Example 26]
% control Phytophthora cinnamomi 20 ppm (Phytophthora cinnamomi): D
% control Pythium ultimum 20 ppm (Pythium ultimum): D

Compound: COCCCOc1ccnc(COc2nc3ccccc3n2-c2nnnn2C)c1C [Example 15]
EC50 Phytophthora spp. (Phytophthora cactorum) (Phytophthora cactorum [2]): H
inhibition of growth at 2 ppm (Pythium ultimum): < 50%
inhibition of growth at 20 ppm (Pythium ultimum): > 99%

The next lines start with results.

EC50 Phytophthora spp. (marked *: Phytophthora cinnamomi) (Phytophthora cinnamomi): E* (an EC50 of less than 20 ppm)
EC50 Pythium ultimum (Pythium ultimum): E (an EC50 of less than 20 ppm)
Compound: Cn1nnnc1-n1c(OCc2cccc(N)n2)nc2ccc(Br)cc21 [Example 28]

EC50 Phytophthora spp. (marked *: Phytophthora cinnamomi) (Phytophthora cinnamomi): E* (an EC50 of less than 20 ppm)
EC50 Pythium ultimum (Pythium ultimum): E (an EC50 of less than 20 ppm)
Compound: Cn1nnnc1-n1c(OCc2ccccn2)nc2ccccc21 [Example 29]
% control Phytophthora cinnamomi 20 ppm (Phytophthora cinnamomi): A (a control of greater than 99%, i.e. no detectable colony growth)
inhibition of growth at 20 ppm (Pythium ultimum): > 99%

EC50 Phytophthora spp. (marked *: Phytophthora cinnamomi) (Phytophthora cinnamomi): E* (an EC50 of less than 20 ppm)
EC50 Pythium ultimum (Pythium ultimum): E (an EC50 of less than 20 ppm)
Compound: Cn1nnnc1-n1c(OCc2ccccn2)nc2ccc(F)cc21 [Example 20]

EC50 Phytophthora spp. (Phytophthora cactorum) (Phytophthora cactorum [2]): H
Compound: Cn1nnnc1-n1c(OCc2cnccn2)nc2ccccc21 [Example 5]
inhibition of growth at 20 ppm (Pythium ultimum): < 50%
% control Pythium ultimum 2 ppm (Pythium ultimum): D

EC50 Phytophthora spp. (Phytophthora cactorum) (Phytophthora cactorum [1]): G
Compound: Cn1nnnc1-n1c(OCc2cccc(NCc3cccnc3)n2)nc2ccccc21 [Example 41]
% control Pythium ultimum 2 ppm (Pythium ultimum): D
